Data as given in patent US12576166B2, “Contrast agents for detection of enzyme activities based on melanin synthesis” (BOARD OF REGENTS, THE UNIVERSITY OF TEXAS SYSTEM, priority 2020, dated 2026).

Target: cathepsin B (Homo sapiens, UniProt P07858)
Experiment: Incubation of Agent 6 with cathepsin B; product read by colour, MSOT and absorbance
Assay type: biochemical
Conditions: pH 6.8, 37° C., overnight
Method: We incubated 2.22 mg/mL ([…], 0.1 mL) of Agent 6 with 2 units of cathepsin B at pH 6.8 and at 37° C. overnight. Although cathepsin B is typically considered to be an endoprotease, this enzyme can work as an exoprotease at lower pH relative to physiological pH 7.4. Also, the extracellular tumor microenvironment is known to be acidic, so that pH 6.8 is a better representation of tumor conditions.
Other samples of were prepared at 1.66, 1.11, 0.84, and 0.55 mg/mL. These solutions were inserted into a customized phantom for a multi spectral optoacoustic imaging instrument (MSOT; also known as photoacoustic imaging) (InVision instrument, iThera Medical). FIG. 12A-FIG. 12D present MSOT or absorbance spectra data for the various concentrations.
The phantoms were imaged at 700-900 nm absorbance wavelengths in 2 nm steps. (FIG. 12A). The samples were also analyzed with a spectrofluorometer with absorbance through the same wavelength range (FIG. 12B), which matched the spectral profile and relative signal intensities of the MSOT spectra. The spectra were broad and featureless, which is expected for a melanin-based product. The signal to noise ratio (SNR) scaled with the concentration of the reactant, providing validation that the MSOT and absorbance signals were derived from the product and was not an artifact of the solution or imaging instrument (FIG. 12C, FIG. 12D).

Compound: CC(=O)NC(Cc1ccccc1)C(=O)NC(CCCCN)C(=O)Nc1ccc(COc2cc3cc[nH]c3cc2O)cc1 (centres unmarked) [Agent 6]
- colour of the resulting solution (indicating melanin produced after cleavage by cathepsin B) (2.22 mg/mL Agent 6, 2 units of cathepsin B): light gray color
- cleavage by cathepsin B to a melanin-based product detectable by MSOT (MSOT 700-900 nm, preliminary results): cleaved by cathepsin B to create a melanin-based product that can be detected by MSOT
